The results in this text go back to the supplement of paper PMC8253809.

Assay [1] deals with HGGX39 (paediatric high-grade glioma line). Put plainly: maximal growth inhibition (yFin) relative to DMSO / staurosporine; higher = more efficacious. The essentials:
(§1)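 Compounds were delivered by pin tool as a 10-point threefold dilution series with a mean top concentration of 35 μM, in triplicate, to patient-derived pHGG/DIPG cell lines and astrocyte controls growing on 1% Geltrex-coated 384-well plates. Incubation lasted 7 days, or 3 days for iAstro, at 37 °C with 5% CO2. EC50 and maximal response (yFin) come from the three- or four-parameter log-logistic fit with the lowest AICc, applied to pooled, log2-transformed CellTiter-Glo luminescence normalised per plate to % activity between solvent (negative) and positive control wells.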

Assay [2] has as its system HGGX6 (H3.3 G34R paediatric high-grade glioma line). The assay is described as above. An outline of the steps:
as §1

Assay [3] has as its system HGGX39. Briefly: EC50 (inflection of fitted growth-inhibition curve) (log10 M). The essentials:
as §1

Assay [4] relates to HGGX6. Described as above. An outline of the steps: as §1
Assay [5] deals with HGGX39. Briefly: area under dose-response curve of % growth inhibition (log2 RLU vs DMSO / staurosporine), 1e-11 to 1e-4 M (% x log10 M); higher = more growth inhibition. The essentials: (§2)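 Area under the curve was derived with the trapezoid rule from a fitted log-logistic curve, switching to a smoothing spline if the sigmoid fit failed. It rested on per-plate % activity between solvent and positive controls, calculated from log2-transformed CellTiter-Glo luminescence after 7 days of exposure (3 days for iAstro) at 37 °C, 5% CO2. Patient-derived pHGG/DIPG lines and astrocytes on 1% Geltrex-coated 384-well plates received a 10-point threefold dilution series, mean top concentration 35 μM, in triplicate.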

The next assay relates to DIPGX29 (H3.3 K27M diffuse intrinsic pontine glioma line). Described as above. An outline of the steps: as §2
Assay [6] relates to HGGX6. Described as above. An outline of the steps: as §2
In assay [7] the test system is DIPGX37 (H3.3 K27M diffuse intrinsic pontine glioma line). The assay is described as above. The essentials:
as §2

In assay [8] the test system is DIPGX37. Briefly: maximal growth inhibition (yFin) relative to DMSO / staurosporine; higher = more efficacious. An outline of the steps: as §1
The test system of assay [9] is DIPGX37. Briefly: EC50 (inflection of fitted growth-inhibition curve) (log10 M). The essentials:
as §1

Turning to `Cc1ccc(C(=O)Nc2ccc(Oc3cc4cnn(C)c4cc3-c3cn[nH]c3)c(F)c2)c(=O)n1-c1ccc(F)cc1`, the maximal growth inhibition in the assay on HGGX39 [1] amounted to 20.9%; in the assay on HGGX6 [2], 25.3%. Besides, the “EC50 (log10 M)” value in the assay with HGGX39 [3] was -5.27; in the assay on HGGX6 [4], -5.1. Besides, the “area under dose-response curve” value with HGGX39 [5] is 28.1; in the assay with DIPGX29, 22.4; with HGGX6 [6], 41.1; in the assay with DIPGX37 [7], 16.1.

`Nc1nccc(-c2c(-c3ccc(F)cc3)ncn2C2CCCCC2)n1`: the maximal growth inhibition in the assay on HGGX6 [2] worked out at 21%. Further, the “EC50 (log10 M)” value with HGGX6 [4] was -4.94. Further, the “area under dose-response curve” value in the assay on HGGX39 [5] came to 21.3; in the assay with DIPGX29, 16.4; in the assay on HGGX6 [6], 31.7; in the assay with DIPGX37 [7] it was 21.5.

For `COc1cc(Nc2ncc3c(n2)-c2ccc(Cl)cc2C(c2c(F)cccc2OC)=NC3)ccc1C(=O)O` [ALISERTIB], the maximal growth inhibition in the assay with HGGX39 [1] is 39.1%; with HGGX6 [2] it was 24.7%. In addition, the results for the “EC50 (log10 M)” value in the assay on HGGX39 [3] and in the assay on HGGX6 [4] were -4.99 and -5.31, respectively. The “area under dose-response curve” value in the assay with HGGX39 [5] is 69.3; with DIPGX29, 52.1; with HGGX6 [6] it was 49.8; in the assay on DIPGX37 [7] it was 66.4.

On to `C[C@H]1[C@H](OC(=O)CCC(=O)O)O[C@@H]2O[C@@]3(C)CC[C@H]4[C@H](C)CC[C@@H]1[C@@]24OO3` [ARTESUNATE], for which the maximal growth inhibition was 32.5% in the assay on HGGX39 [1] and 22.2% in the assay with HGGX6 [2]. Besides, the figures for the “EC50 (log10 M)” value in the assay with HGGX39 [3] and in the assay with HGGX6 [4] were -4.94 and -5.03, respectively. Further, the “area under dose-response curve” value with HGGX39 [5] came to 29; with DIPGX29, 8.84; in the assay on HGGX6 [6], 23.5; with DIPGX37 [7] it was 9.88.

Regarding `c1ccc(-c2ccc(C(c3ccccc3)n3ccnc3)cc2)cc1` (stereo not given) [BIFONAZOLE], the maximal growth inhibition with HGGX6 [2] stood at 20.1%; with DIPGX37 [8], 42.4%. Also, the “EC50 (log10 M)” value is -4.81 in the assay on HGGX6 [4] and -4.75 in the assay with DIPGX37 [9]. The “area under dose-response curve” value was 30.5 in the assay with HGGX39 [5], 17.3 in the assay on DIPGX29, 16.4 in the assay with HGGX6 [6] and 31.9 in the assay with DIPGX37 [7].

For the molecule `COc1cc2nccc(Oc3ccc(NC(=O)C4(C(=O)Nc5ccc(F)cc5)CC4)cc3)c2cc1OC` [CABOZANTINIB], the maximal growth inhibition in the assay on HGGX39 [1] was found to be 60.2%; in the assay with HGGX6 [2] it was 27.1%. Moreover, the “EC50 (log10 M)” value in the assay on HGGX39 [3] is -4.62; in the assay on HGGX6 [4], -4.79. The “area under dose-response curve” value in the assay on HGGX39 [5] was determined as 37.5; with DIPGX29 it was 10.6; in the assay on HGGX6 [6] it was 33; with DIPGX37 [7], 12.8.

In the case of `Nc1nc(Cl)nc2c1ncn2[C@@H]1O[C@H](CO)[C@@H](O)[C@@H]1F` [CLOFARABINE], the maximal growth inhibition came out at 22.7% in the assay on HGGX6 [2] and 28.4% in the assay with DIPGX37 [8]. For the same molecule, the entries for the “EC50 (log10 M)” value in the assay with HGGX6 [4] and in the assay on DIPGX37 [9] were -5.65 and -5.4, respectively. Further, the “area under dose-response curve” value in the assay on HGGX39 [5] was found to be 44.4; in the assay with DIPGX29, 52.4; with HGGX6 [6], 40.9; with DIPGX37 [7], 47.

With `CC(C)n1c(/C=C/C(O)CC(O)CC(=O)O)c(-c2ccc(F)cc2)c2ccccc21` (stereo not given) [FLUVASTATIN], the maximal growth inhibition in the assay on HGGX39 [1] was found to be 23.9%; in the assay on HGGX6 [2], 26.8%. The entries for the “EC50 (log10 M)” value with HGGX39 [3] and with HGGX6 [4] were -6.08 and -5.92, respectively. The “area under dose-response curve” value turned out to be 51.2 in the assay on HGGX39 [5], 25.5 in the assay with DIPGX29, 54 in the assay on HGGX6 [6] and 1.43 in the assay with DIPGX37 [7].

With `N[C@@H](Cc1cc(I)c(Oc2ccc(O)c(I)c2)c(I)c1)C(=O)O` [LIOTHYRONINE], the maximal growth inhibition in the assay on HGGX39 [1] was 26.4%; in the assay on DIPGX37 [8] it was 26.5%. Moreover, the results for the “EC50 (log10 M)” value in the assay with HGGX39 [3] and in the assay on DIPGX37 [9] were -5.95 and -5.69, respectively. Further, the “area under dose-response curve” value in the assay on HGGX39 [5] came out at 51.4; in the assay with DIPGX29, 31.4; in the assay on HGGX6 [6], 11.9; in the assay on DIPGX37 [7] it was 62.2.

Turning to `Cc1cc(=O)n(C)c2cc(N3C(=O)CC[C@H](NS(=O)(=O)CC(C)C)[C@H]3c3ccc(Cl)cc3)ccc12` [LP-99], in the assay with HGGX6 [2], the maximal growth inhibition came to 22.4%. For the same molecule, in the assay on HGGX6 [4], the “EC50 (log10 M)” value was -4.95. The “area under dose-response curve” value was 11.5 with HGGX39 [5], 12.9 in the assay on DIPGX29, 21.2 with HGGX6 [6] and 10.2 in the assay with DIPGX37 [7].

`CC[C@H](C)C(=O)O[C@H]1CCC=C2C=C[C@H](C)[C@H](CC[C@@H]3C[C@@H](O)CC(=O)O3)[C@H]21` [MEVASTATIN]: the maximal growth inhibition in the assay with HGGX39 [1] came out at 57.7%; in the assay on DIPGX37 [8], 20.8%. Besides, the “EC50 (log10 M)” value in the assay with HGGX39 [3] is -4.97; with DIPGX37 [9], -5.53. Moreover, the “area under dose-response curve” value came out at 56.7 in the assay on HGGX39 [5], 32.6 with DIPGX29, 23.3 in the assay with HGGX6 [6] and 41.4 with DIPGX37 [7].

`Cc1sc2c(c1C)C(c1ccc(Cl)cc1)=N[C@@H](CC(=O)Nc1ccc(O)cc1)c1nnc(C)n1-2` [OTX015]: the maximal growth inhibition in the assay on HGGX39 [1] worked out at 50.6%; with DIPGX37 [8], 29.5%. For the same molecule, the “EC50 (log10 M)” value in the assay with HGGX39 [3] was -5.11; in the assay on DIPGX37 [9], -6.7. For the same molecule, the “area under dose-response curve” value in the assay with HGGX39 [5] is 53.1; with DIPGX29, 30.3; in the assay with HGGX6 [6], 33.7; with DIPGX37 [7] it was 80.

Regarding `CCCCOc1cc(C(=O)OCCN(CC)CC)ccc1N` [OXYBUPROCAINE], the figures for the maximal growth inhibition in the assay with HGGX39 [1] and in the assay with HGGX6 [2] were 67.2% and 26.6%, respectively. The “EC50 (log10 M)” value with HGGX39 [3] is -4.97; in the assay on HGGX6 [4], -5.11. Besides, the “area under dose-response curve” value in the assay with HGGX39 [5] turned out to be 65.7; in the assay with DIPGX29, 11.5; in the assay on HGGX6 [6], 29.7; with DIPGX37 [7], 16.5.

In the case of `CC(=O)O[C@H]1C(=O)[C@@]2(C)[C@H]([C@H](OC(=O)c3ccccc3)[C@]3(O)C[C@H](OC(=O)[C@H](O)[C@@H](NC(=O)c4ccccc4)c4ccccc4)C(C)=C1C3(C)C)[C@]1(OC(C)=O)CO[C@@H]1C[C@@H]2O` [PACLITAXEL], the figures for the maximal growth inhibition in the assay with HGGX39 [1] and in the assay on DIPGX37 [8] were 42.5% and 24.3%, respectively. Besides, the “EC50 (log10 M)” value with HGGX39 [3] was -8.21; with DIPGX37 [9], -8.09. The “area under dose-response curve” value in the assay on HGGX39 [5] was 179; in the assay on DIPGX29, 42.1; in the assay with HGGX6 [6], 55.2; in the assay on DIPGX37 [7] it was 99.3.

For `C#CCC(Cc1cnc2nc(N)nc(N)c2n1)c1ccc(C(=O)N[C@@H](CCC(=O)O)C(=O)O)cc1` (stereo not given in full) [PRALATREXATE], the figures for the maximal growth inhibition with HGGX39 [1] and in the assay on HGGX6 [2] were 25.5% and 22.1%, respectively. Moreover, the “EC50 (log10 M)” value in the assay with HGGX39 [3] was -8.55; in the assay on HGGX6 [4], -7.84. Further, the “area under dose-response curve” value in the assay on HGGX39 [5] came to 116; in the assay with DIPGX29, 66.7; with HGGX6 [6], 83.2; in the assay with DIPGX37 [7], 73.

Turning to `N#CC[C@H](C1CCCC1)n1cc(-c2ncnc3[nH]ccc23)cn1` [RUXOLITINIB], the maximal growth inhibition in the assay on HGGX39 [1] stood at 27.7%; in the assay with HGGX6 [2], 21.7%. For the same molecule, the “EC50 (log10 M)” value is -5.58 with HGGX39 [3] and -5.22 in the assay on HGGX6 [4]. The “area under dose-response curve” value in the assay with HGGX39 [5] was 44.9; in the assay on DIPGX29 it was 24.4; in the assay on HGGX6 [6] it was 28.9; with DIPGX37 [7], 44.2.

With `O=C(/C=C\n1cnc(-c2cc(C(F)(F)F)cc(C(F)(F)F)c2)n1)NNc1cnccn1` [SELINEXOR], the maximal growth inhibition in the assay with HGGX39 [1] was determined as 96.2%; with HGGX6 [2], 101%. The figures for the “EC50 (log10 M)” value with HGGX39 [3] and with HGGX6 [4] were -6.06 and -5.23, respectively. In addition, the “area under dose-response curve” value in the assay on HGGX39 [5] came out at 195; with DIPGX29 it was 144; in the assay on HGGX6 [6] it was 205; in the assay with DIPGX37 [7] it was 169.

On to `CCC(C)(C)C(=O)O[C@H]1C[C@@H](C)C=C2C=C[C@H](C)[C@H](CC[C@@H]3C[C@@H](O)CC(=O)O3)[C@H]21` [SIMVASTATIN], for which the results for the maximal growth inhibition with HGGX39 [1] and in the assay with HGGX6 [2] were 53.9% and 22.6%, respectively. The figures for the “EC50 (log10 M)” value in the assay on HGGX39 [3] and with HGGX6 [4] were -4.94 and -5.07, respectively. Besides, the “area under dose-response curve” value is 63.6 with HGGX39 [5], 29.8 with DIPGX29, 24.4 in the assay on HGGX6 [6] and 39.1 in the assay with DIPGX37 [7].
